According to PubChem BioAssay AID1963828 (Molecular Pharmacology Branch, DTP, NCI, 2024):

Test system: 991263-137-R1-J2-PDC complex spheroid viability
Assay: Anticancer human tumor 991263-137-R1-J2-PDC patient-derived colon adenocarcinoma cell line growth inhibition [POLQ]
Settings: for IC50: curve of first compound; for viability, T/C: stronger effect = lower value
Method: Multicellular complex tumor spheroid response to Polymerase (POL) inhibitors (novobiocin, ART-558, RP6685) in combination with a variety of drugs and investigational agents in selected tumor cell lines
The POL inhibitors (novobiocin, ART-558, and RP6685) were evaluated both individually and in combination with standard of care and investigational anticancer small molecules within a complex spheroid model of solid tumors. . Complex spheroids include a stromal component modeled by human endothelial cells (HUVEC) and fibroblasts modeled by human mesenchymal stem cells (MSCs). The concentration ranges selected for each drug and investigational agent were based upon clinically achievable concentrations if the clinical Cmax of the agent was known.
Compounds. The drugs and investigational agents: novobiocin (NSC847541), ART-558 (NSC835418), RP-6685 (NSC848927), peposertib (NSC802822), ceralasertib (NSC780249), elimusertib (NSC800525), camonsertib (NSC841442), AZD-1390 (NSC803789), olaparib (NSC753686), talazoparib (NSC767125), rucaparib (NSC756644), sotorasib (NSC818433), MRTX-1133 (NSC836407), SN-38 (NSC673596), topotecan (NSC609699), epotoside (NSC141540), doxorubicin (NSC123127), gemcitabine (NSC613327), 5-fluorouracil (NSC19893), paclitaxel (NSC125973), vemurafenib (NSC761431), MSA-2 (NSC828583), SN-011 (NSC837082), adavosertib (NSC754352), prexasertib (NSC758257), carboplatin (NSC241240) and oxaliplatin (NSC266046), were obtained from the National Cancer Institute (NCI) Developmental Therapeutics Program Chemical Repository (21). The FDA-approved anticancer drug set is available from the Developmental Therapeutics Program at https://dtp.cancer.gov/organization/dscb/obtaining/. […] The stock solutions were prepared in dimethyl sulfoxide (DMSO, Sigma-Aldrich, St. Louis, MO, cat. D2650), except for the platinum compounds which were prepared in saline (Quality Biological, Gaithersburg, MD, cat. 114-055-101), at 800-fold the tested concentration and stored at -70 degrees C prior to their use. All drugs and investigational agents were tested over a range starting from a high concentration at or near the clinical Cmax and decreasing in half-log increments. If the clinical Cmax for an agent had not been determined, the highest concentration tested was 10 microM, except for SN-38, which was tested at a high concentration of 1 microM.
Cell Culture. All cells were maintained in an incubator at 37 degrees C and 5% CO2 with 95% humidity. The PDC lines were cultured according to standard operating procedures established by the NCI PDMR (https://pdmr.cancer.gov). Table 3 of the manuscript, lists the cell lines along with the number of the three cell types plated to form the mct-spheroids and media for tumor cell growth. After thawing, all PDC lines, except 997537-175-T-J1-PDC and 415267-285-R-J2-PDC, were cultured in Matrigel-coated flasks prepared with a working solution of 1X Ham's F-12 nutrient mix, without supplementation (Thermo Fisher Scientific, cat. 11765054), 100 U/mL penicillin-streptomycin (Thermo Fisher Scientific, cat. 15140122), and 2.5% Matrigel (Corning Inc., Corning, NY, cat. 354248) for the first three passages. The two PDC lines 997537-175-T-J1-PDC and 415267-285-R-J2-PDC were cultured on uncoated flasks. The 857933-349-R-J2-PDC line was cultured in 6C/Colon 1B media containing advanced DMEM/F-12 (Thermo Fisher Scientific, cat. 12634028), 10 mM HEPES (Thermo Fisher Scientific, cat. 15630080), 1X GlutaMAX supplement (Thermo Fisher Scientific, cat. 35050061), 0.1 mg/mL primocin (InvivoGen, San Diego, CA, cat. ant-pm-2), 10% defined fetal bovine serum, heat inactivated (HyClone Laboratories Inc., Logan, UT, cat. SH30070.03HI), 50% L-WRN conditioned media (ATCC, cat. CRL-3276), 1.25 mM N-Acetyl-L-cysteine (Sigma-Aldrich, cat. A9165), 10 mM nicotinamide (Sigma-Aldrich, cat. N0636), 1X B-27 supplement (Thermo Fisher Scientific, cat. 17504044), 1X N-2 supplement (Thermo Fisher Scientific, cat. […]
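Note: spheroids exposed to compounds for 7 days before readout.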
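Throughout, for viability, T/C: 100% = DMSO vehicle control viability.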

In the case of `CC1COCCN1c1cc(C2(S(C)(=N)=O)CC2)nc(-c2ccnc3[nH]ccc23)n1` (configuration not stated) + COC1C(OC(N)=O)C(O)C(Oc2ccc3c(O)c(NC(=O)c4ccc(O)c(CC=C(C)C)c4)c(=O)oc3c2C)OC1(C)C, the IC50 (second compound 0.0316 µM) is reported as > 10 µM, the IC50 (second compound 0.1 µM) is reported as > 10 µM and the IC50 (second compound 0.316 µM) is reported as > 10 µM. The IC50 (second compound 1 µM) was > 10 µM, the IC50 (second compound 3.16 µM) was > 10 µM and the IC50 (second compound 10 µM) was > 10 µM. For the same molecule, the viability, T/C (second compound 0.0316 µM, first compound 0.0316 µM) was 99.2%, the viability, T/C (second compound 0.0316 µM, first compound 0.1 µM) was 84.5% and the viability, T/C (second compound 0.0316 µM, first compound 0.316 µM) was 104%. For the same molecule, the viability, T/C (second compound 0.0316 µM, first compound 1 µM) was 87%, the viability, T/C (second compound 0.0316 µM, first compound 3.16 µM) was 91.5% and the viability, T/C (second compound 0.0316 µM, first compound 10 µM) was 66.1%. For the same molecule, the viability, T/C (second compound 0.1 µM, first compound 0.0316 µM) was 113%, the viability, T/C (second compound 0.1 µM, first compound 0.1 µM) was 112% and the viability, T/C (second compound 0.1 µM, first compound 0.316 µM) was 101%. For the same molecule, the viability, T/C (second compound 0.1 µM, first compound 1 µM) was 89.2%, the viability, T/C (second compound 0.1 µM, first compound 3.16 µM) was 97.6% and the viability, T/C (second compound 0.1 µM, first compound 10 µM) was 55.4%. For the same molecule, the viability, T/C (second compound 0.316 µM, first compound 0.0316 µM) was 96.3%, the viability, T/C (second compound 0.316 µM, first compound 0.1 µM) was 106% and the viability, T/C (second compound 0.316 µM, first compound 0.316 µM) was 89.9%. For the same molecule, the viability, T/C (second compound 0.316 µM, first compound 1 µM) was 69.6%, the viability, T/C (second compound 0.316 µM, first compound 3.16 µM) was 104% and the viability, T/C (second compound 0.316 µM, first compound 10 µM) was 83.8%. For the same molecule, the viability, T/C (second compound 1 µM, first compound 0.0316 µM) was 106%, the viability, T/C (second compound 1 µM, first compound 0.1 µM) was 103% and the viability, T/C (second compound 1 µM, first compound 0.316 µM) was 91.2%. The viability, T/C (second compound 1 µM, first compound 1 µM) was 89.5%, the viability, T/C (second compound 1 µM, first compound 3.16 µM) was 96.5% and the viability, T/C (second compound 1 µM, first compound 10 µM) was 79.9%. It also gave a viability, T/C (second compound 3.16 µM, first compound 0.0316 µM) of 92.8%, a viability, T/C (second compound 3.16 µM, first compound 0.1 µM) of 85.9% and a viability, T/C (second compound 3.16 µM, first compound 0.316 µM) of 98.3%. It also gave a viability, T/C (second compound 3.16 µM, first compound 1 µM) of 106%, a viability, T/C (second compound 3.16 µM, first compound 3.16 µM) of 103% and a viability, T/C (second compound 3.16 µM, first compound 10 µM) of 84%. The viability, T/C (second compound 10 µM, first compound 0.0316 µM) was 86.8%, the viability, T/C (second compound 10 µM, first compound 0.1 µM) was 106% and the viability, T/C (second compound 10 µM, first compound 0.316 µM) was 105%. It also gave a viability, T/C (second compound 10 µM, first compound 1 µM) of 96.6%, a viability, T/C (second compound 10 µM, first compound 3.16 µM) of 107% and a viability, T/C (second compound 10 µM, first compound 10 µM) of 70.9%.
